Data published in patent US7541364B2, “Pyridomorphinans, pyridazinomorphinans and use thereof” (priority 2003, dated 2009).
Where two headings read alike, the source gives them in different places.

Columns and labels:
[1] = molecular target: T1, κ receptor (Cavia porcellus, UniProt P41144); assay: biochemical
[2] = molecular target: T2, μ receptor (Cavia porcellus, UniProt A0ACM8Q262); settings: read-out: antagonist activity apparent Ki (nM ± SD) μ; inhibition of DAMGO (10 μM) stimulated [35S]GTP-γ-S binding
T2 sequence (A0ACM8Q262 1-400): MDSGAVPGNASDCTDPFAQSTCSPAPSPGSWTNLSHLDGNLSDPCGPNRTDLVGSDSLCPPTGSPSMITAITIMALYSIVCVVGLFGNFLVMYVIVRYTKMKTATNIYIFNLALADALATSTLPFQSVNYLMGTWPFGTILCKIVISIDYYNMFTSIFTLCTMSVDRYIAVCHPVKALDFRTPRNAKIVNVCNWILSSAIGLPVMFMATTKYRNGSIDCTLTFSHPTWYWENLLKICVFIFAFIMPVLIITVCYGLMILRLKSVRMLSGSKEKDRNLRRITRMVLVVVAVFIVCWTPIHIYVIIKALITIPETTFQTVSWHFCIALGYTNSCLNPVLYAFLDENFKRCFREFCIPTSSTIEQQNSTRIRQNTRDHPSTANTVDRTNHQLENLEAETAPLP

[3] = molecular target: T3, opioid κ receptor (Cavia porcellus, UniProt P41144); settings: data from Ananthan et al. (I); cited from earlier work
T3 sequence (P41144 whole entry): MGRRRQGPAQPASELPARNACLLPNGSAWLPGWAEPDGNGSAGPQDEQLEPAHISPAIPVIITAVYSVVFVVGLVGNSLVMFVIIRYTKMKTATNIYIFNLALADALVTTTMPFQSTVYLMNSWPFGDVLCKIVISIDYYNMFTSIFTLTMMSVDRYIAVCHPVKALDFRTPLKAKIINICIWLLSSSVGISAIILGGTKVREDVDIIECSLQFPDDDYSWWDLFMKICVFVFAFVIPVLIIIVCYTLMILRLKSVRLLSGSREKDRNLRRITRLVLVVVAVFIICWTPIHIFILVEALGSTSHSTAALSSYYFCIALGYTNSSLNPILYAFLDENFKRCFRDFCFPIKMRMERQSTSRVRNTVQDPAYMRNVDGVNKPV

[4] = molecular target: μ receptor (guinea pig ileum) (Cavia porcellus, UniProt A0ACM8Q262); settings: data from Ananthan et al. (I), cited from earlier work
Chain of μ receptor (guinea pig ileum) (A0ACM8Q262 1-400): as the sequence (A0ACM8Q262 1-400) above

[5] = molecular target: T4, δ receptor (mouse vas deferens) (Mus musculus, UniProt P32300); settings: percentage inhibition of contraction at 1 μM; data from Ananthan et al. (I); cited from earlier work
T4 sequence (P32300 whole entry): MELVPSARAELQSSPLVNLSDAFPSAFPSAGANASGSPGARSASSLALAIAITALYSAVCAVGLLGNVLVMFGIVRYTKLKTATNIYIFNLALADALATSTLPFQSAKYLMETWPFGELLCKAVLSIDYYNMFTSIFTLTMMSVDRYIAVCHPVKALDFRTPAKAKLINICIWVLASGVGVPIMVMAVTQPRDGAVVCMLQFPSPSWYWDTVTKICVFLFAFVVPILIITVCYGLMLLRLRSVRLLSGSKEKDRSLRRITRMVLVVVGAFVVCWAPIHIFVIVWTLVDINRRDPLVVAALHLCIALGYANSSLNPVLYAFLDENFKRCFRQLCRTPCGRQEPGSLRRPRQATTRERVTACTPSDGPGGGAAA

[6] = molecular target: T4, δ receptor (mouse vas deferens); parameters: from tissue; host or cells: mouse vas deferens (male ICR mice); settings: DPDPE as agonist; data from Ananthan et al. (I); cited from earlier work
[7] = molecular target: T5, opioid μ receptor (Rattus norvegicus, UniProt P33535); settings: data from Ananthan et al. (I); cited from earlier work
T5 sequence (P33535 whole entry): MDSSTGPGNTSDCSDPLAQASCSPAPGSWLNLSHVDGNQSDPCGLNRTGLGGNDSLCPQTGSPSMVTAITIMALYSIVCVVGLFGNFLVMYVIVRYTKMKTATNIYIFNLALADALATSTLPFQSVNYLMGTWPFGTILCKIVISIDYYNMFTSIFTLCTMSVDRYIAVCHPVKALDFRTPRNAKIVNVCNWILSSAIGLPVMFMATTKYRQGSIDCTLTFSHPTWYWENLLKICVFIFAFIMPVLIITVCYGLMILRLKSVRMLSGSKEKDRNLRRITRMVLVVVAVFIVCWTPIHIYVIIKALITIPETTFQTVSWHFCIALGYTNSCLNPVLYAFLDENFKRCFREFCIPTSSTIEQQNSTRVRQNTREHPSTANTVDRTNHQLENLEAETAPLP

[8] = molecular target: T5, opioid μ receptor; settings: for selectivity ratio μ/δ: ratio of binding Ki values; for Ki: read-out: Ki (nM) ± SEM μ, displacement of [3H]DAMGO (1.4-3.0 nM), rat brain membranes
[9] = molecular target: T2, μ receptor; assay: biochemical; settings: read-out: agonist activity Emax % μ
[10] = molecular target: T4, δ receptor (mouse vas deferens); assay: Mouse vas deferens (MVD) smooth muscle bioassay; settings: inhibition of electrically stimulated contractions; read-out: agonist activity MVD (δ) IC50
Procedure: (§1) Bioassays in Smooth Muscle Preparations. The functional activity profiles of selected ligands are also determined in the mouse vas deferens (MVD) and guinea pig ileum (GPI) smooth muscle preparations as described previously.
(§2) The agonist activity is determined by the ability of the compound to inhibit electrically stimulated contractions of the GPI and MVD. The GPI is primarily a μ receptor preparation, even though the ileum does also contain κ receptors. In the MVD, the opioid effects are predominantly mediated through δ receptors, but μ and κ receptors also exist in this tissue.
(§3) Tissues came from male ICR mice weighing 25-40 g and male Hartley guinea pigs weighing 250-500 g. The tissues are tied to gold chain with suture silk, suspended in 20 mL baths containing 37° C. oxygenated (95% O2, 5% CO2) Krebs bicarbonate solution (magnesium free for the MVD), and allowed to equilibrate for 15 min. The tissues are then stretched to optimal length previously determined to be 1 g tension (0.5 g for MVD) and allowed to equilibrate for 15 min. The tissues are stimulated transmurally between platinum wire electrodes at 0.1 Hz, 0.4 ms pulses (2-ms pulses for MVD), and supramaximal voltage. […] Tissues not producing typical results are not used. Experimental compounds were added to the baths in 14-60 μL volumes. Succeeding doses of agonist are added cumulatively to the bath at 3 min intervals to produce a concentration-response curve. The tissues are then washed extensively with fresh buffer until the original contraction height is reestablished. […] The tissues are then washed with fresh buffer for 30 min, and the agonist dose-response curve was repeated. Rightward shifts in the dose-response curves are calculated by dividing the antagonized dose-response curve IC50 value by the unantagonized IC50 value. IC50 values represent the mean of two to four tissues. IC50 estimates and their associated standard errors are determined by using a computerized nonlinear least-squares method. (MINSQ Least Squares Parameter Estimation, version 3.05; MicroMath Inc., 1999.)

[11] = molecular target: T6, δ receptor (Cavia porcellus, UniProt A0A286XTF2); settings: for maximum percentage inhibition of SNC-80 stimulated [35S]GTP-γ-S binding: δ receptors, partial inhibition with increasing concentrations
T6 sequence (A0A286XTF2 1-366): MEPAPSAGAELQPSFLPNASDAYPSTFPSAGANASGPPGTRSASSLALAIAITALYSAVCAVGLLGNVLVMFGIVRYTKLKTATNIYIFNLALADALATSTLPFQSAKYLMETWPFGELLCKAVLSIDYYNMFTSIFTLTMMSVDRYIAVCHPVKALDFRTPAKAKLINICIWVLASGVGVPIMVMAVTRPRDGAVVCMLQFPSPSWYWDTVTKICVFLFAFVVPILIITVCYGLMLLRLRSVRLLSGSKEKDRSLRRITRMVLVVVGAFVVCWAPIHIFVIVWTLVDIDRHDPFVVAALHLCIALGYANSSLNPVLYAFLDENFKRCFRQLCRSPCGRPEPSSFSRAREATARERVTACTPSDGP

[12] = molecular target: T6, δ receptor; assay: biochemical
[13] = test system: mice; assay: 55° C. tail-flick antinociception test in mice; settings: for naloxone sensitivity: naloxone 10 mg/kg ip, -10 min, yes = greater than 80% reduction in the antinociceptive effect
Procedure: Analgesic Testing and Assessment of Tolerance Development. The analgesic activity of selected ligands is tested in mice using the 55° C. tail-flick test as previously described. (See Wells et al., supra.) The test compounds are administered by the intracerbroventricular (icv) route. […] To determine whether the analgesic activity of the tested compounds is mediated through opioid receptors, the blockade of antinociceptive activity by pretreatment with naloxone is carried out. The analgesic activity was considered as naloxone sensitive if greater than 80% reduction in the antinociceptive response is observed.
Antinociceptive Studies. Male ICR mice (Harlan) are used for all evaluations. Mice are housed in a temperature and humidity controlled vivarium on a 12:12 h light:dark cycle with unlimited access to food and water prior to the formal procedures. […] The dihydrochloride salt of 7h is dissolved in water and injected in a volume of 5 μL. All other compounds are dissolved in 100% DMSO and injected in a volume of 5 μL. Antinociceptive assays are performed at various times after injection.
Percent antinociception is calculated using the formula: % MPE (maximal possible effect)=100×(test−control)/(cutoff−control) where control is the predrug observation, test is the postdrug observation, and cutoff is the maximal length of stimulus allowed (10 s for 55° C. tail-flick). Antinociceptive A50 values and 95% confidence intervals are determined using linear regression software (FlashCalc). Opioid activity of the test compounds are assessed by pretreating animals with naloxone (10 mg/kg ip, −10 min) followed by an icv injection of an approximate A90 dose of test compound. […] Antinociception is assessed in the 55° C. tail-flick test at 10, 20 and 30 min. A positive response to a fixed dose of naloxone is indicated when greater than 80% reduction in the antinociceptive effect of the agonist is observed.

[14] = molecular target: T7, opioid δ receptor (Rattus norvegicus, UniProt P33533); assay: Opioid δ receptor binding, [3H]DADLE displacement in rat brain membranes
T7 construct: Rat membranes are prepared each day using a partially thawed frozen rat brain; from tissue; host or cells: rat brain membranes
T7 sequence (P33533 whole entry): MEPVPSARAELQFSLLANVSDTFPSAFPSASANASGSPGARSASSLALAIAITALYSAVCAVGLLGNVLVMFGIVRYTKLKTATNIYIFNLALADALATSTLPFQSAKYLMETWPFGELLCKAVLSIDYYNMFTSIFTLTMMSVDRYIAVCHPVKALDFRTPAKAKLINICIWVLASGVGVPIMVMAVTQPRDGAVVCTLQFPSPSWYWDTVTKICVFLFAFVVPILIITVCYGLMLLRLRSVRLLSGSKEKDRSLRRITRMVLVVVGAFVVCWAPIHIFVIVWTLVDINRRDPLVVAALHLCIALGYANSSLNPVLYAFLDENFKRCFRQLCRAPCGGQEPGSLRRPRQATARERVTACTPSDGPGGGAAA

[15] = molecular target: T3, opioid κ receptor; settings: for selectivity ratio κ/δ: ratio of binding Ki values; for Ki: read-out: Ki (nM) ± SEM κ, displacement of [3H]U69,593 (1.2-[…]), guinea pig brain membranes
[16] = molecular target: T4, δ receptor (mouse vas deferens); assay: Mouse vas deferens (MVD) smooth muscle bioassay; parameters: from tissue; host or cells: mouse vas deferens (male ICR mice); settings: for antagonist activity MVD (δ) Ke: DPDPE as agonist, 1 μM compound, 30 min preincubation
Procedure: as §1, §2, §3

[17] = molecular target: T3, opioid κ receptor; assay: biochemical
[18] = molecular target: T5, opioid μ receptor; assay: biochemical
[19] = molecular target: T1, κ receptor
[20] = displacement of [3H]DADLE (1.3-2.0 nM), rat brain membranes, 100 nM DAMGO to block μ sites, read-out: Ki (nM) ± SEM δ

T1 sequence (P41144 whole entry): as the sequence (P41144 whole entry) above

Row | Compound | Ki [2] | selectivity ratio μ/δ [8] | Ki [8] | Emax [9] | melting point | factor that prevented determining the A50 value ([13]; icv, mouse tail-flick) | Ki [14, 20] | selectivity ratio κ/δ [15] | Ki [15] | Ki [14] | Ki [17] | Ki [18] | further results
1 | Oc1ccc2c3c1O[C@H]1c4[nH]c5ccccc5c4C[C@@]4(O)C(C2)N(CC2CC2)CC[C@]314 [1, NTI, reference compound] | 3.21 ± 0.2 nM |  |  |  |  |  |  |  |  |  |  |  | Ki [1]: 8.85 ± 0.8 nM
2 | Oc1ccc2c3c1OC1c4ncccc4CC4(O)C(C2)N(CC2CC2)CCC314 (stereo not shown) [2a] |  |  |  |  |  |  |  |  |  |  |  |  | selectivity ratio κ/δ [3]: 11; antagonist activity GPI (μ) Ke ([4]; PL-017 as agonist): 190 ± 65 nM; agonist activity GPI (μ) % max resp ([4]; percentage inhibition of contraction at 1 μM): 0%; agonist activity MVD (δ) % max resp [5]: 0%; antagonist activity MVD (δ) Ke [6]: 37.0 ± 1.0 nM; selectivity ratio μ/δ [7]: 1.9
3 | CN1CC[C@]23c4c5ccc(O)c4O[C@H]2c2ncc(-c4ccccc4)cc2C[C@@]3(O)[C@H]1C5 [7c, 6,7-Didehydro-3,14-dihydroxy-4,5α-epoxy-17-methyl-5′-phenylpyrido[2′,3′:6,7]morphinan] | > 1000 nM | 9 | 26 ± 0.96 nM | 27% | 190 to 192 °C | lack of efficacy | 2.9 ± 0.12 nM | 124 | 360 ± 17 nM |  |  |  | IC50 [10]: 213 ± 55.8 nM; maximum percentage inhibition of SNC-80 stimulated [35S]GTP-γ-S binding [11]: 61±3%; IC50 [12]: 920 nM; % nociception @ 100 nmol ([13]; icv, 100 nmol, mouse tail-flick): 64% @ 100 nmol; naloxone sensitivity [13]: no
4 | CN1CC[C@]23c4c5ccc(O)c4O[C@H]2c2ncc(-c4ccc(Cl)cc4)cc2C[C@@]3(O)[C@H]1C5 [7d, 5′-(4-Chlorophenyl)-6,7-didehydro-3,14-dihydroxy-4,5α-epoxy-17-methylpyrido[2′,3′:6,7]morphinan] | > 1000 nM | 58 | 230 ± 10 nM |  | 196 to 198 °C | lack of potency |  | 118 | 468 ± 17 nM | 3.96 ± 0.23 nM |  |  | Ki [1]: 767 ± 54 nM; Kb [16]: 38.2 ± 14.7 nM; antagonist activity MVD (δ) Ke [16]: 38 nM; Ki [12]: 17 nM; % nociception @ 300 nmol ([13]; icv, mouse tail-flick): 43% @ 300 nmol; naloxone sensitivity [13]: partial
5 | CN1CCC23c4c5ccc(O)c4OC2c2ncc(-c4ccc(Br)cc4)cc2CC3(O)C1C5 (stereo not drawn) [7e, 5′-(4-Bromophenyl)-6,7-didehydro-3,14-dihydroxy-4,5α-epoxy-17-methylpyrido[2′,3′:6,7]morphinan] |  | 49 |  |  | 196 to 198 °C |  |  | 108 |  | 4 ± 0.3 nM | 432 ± 18 nM | 196 ± 4 nM | 
6 | CN1CC[C@]23c4c5ccc(O)c4O[C@H]2c2ncc(-c4ccc(Cl)c(Cl)c4)cc2C[C@H]3[C@H]1C5 [7j, 5′-(3,4-Dichlorophenyl)-6,7-didehydro-4,5α-epoxy-3-hydroxy-17-methylpyrido[2′,3′:6,7]morphinan] | > 1000 nM | 25 | 93 ± 4 nM | 63 ± 3% | 184 to 186 °C | lack of efficacy | 3.7 ± 0.14 nM | 75 | 278 ± 7 nM |  |  |  | IC50 [1]: 4770 nM; IC50 [10]: 489 ± 164 nM; maximum percentage inhibition of SNC-80 stimulated [35S]GTP-γ-S binding [11]: 58±3%; IC50 [12]: 74 nM; maximum inhibition at the κ receptors [19]: 66±6%; % nociception @ 300 nmol ([13]; icv, mouse tail-flick): 44% @ 300 nmol
7 | CN1CC[C@]23c4c5ccc(O)c4O[C@H]2c2ncc(-c4ccc(Cl)cc4Cl)cc2C[C@H]3[C@H]1C5 [7k, 5′-(2,4-Dichlorophenyl)-6,7-didehydro-4,5α-epoxy-3-hydroxy-17-methylpyrido[2′,3′:6,7]morphinan] | > 1000 nM | 88 | 97 ± 4 nM | 51 ± 5% | 198 to 200 °C | lack of efficacy | 1.1 nM | 366 | 403 ± 9 nM |  |  |  | Kb [16]: 5.02 ± 1.56 nM; antagonist activity MVD (δ) Ke [16]: 5 nM; improvement in antagonist potency at the δ receptor relative to 7h [11]: 10 fold; Ki [12]: 1.08 ± 0.11 nM; Ki ([19]; read-out: antagonist activity apparent Ki (nM ± SD) κ): 308 ± 21 nM; % nociception @ 60 nmol ([13]; icv, 60 nmol, mouse tail-flick): 40% @ 60 nmol^e; enhancement in binding affinity at the δ receptor relative to 7h [14]: 4 fold
8 | COc1ccc2c3c1OC1c4ncc(-c5ccccc5)cc4CC4(O)C(C2)N(C)CCC314 (stereo not drawn) [7n, 6,7-didehydro-4,5α-epoxy-14-hydroxy-3-methoxy-17-methyl-5′-phenylpyrido[2′,3′:6,7]-morphinan] |  | 26 |  |  | > 250 °C |  |  | >294 |  | 34 ± 0.63 nM | > 10000 nM | 894 ± 19 nM | 
9 | COc1ccc2c3c1OC1c4ncc(-c5ccc(Br)cc5)cc4CC4(O)C(C2)N(C)CCC314 (stereo not drawn) [7p, 5′-(4-bromophenyl)-6,7-didehydro-4,5α-epoxy-14-hydroxy-3-methoxy-17-methyl-pyrido[2′,3′:6,7]morphinan] |  | 82 |  |  | > 230 °C |  |  | 320 |  | 23 ± 1.3 nM | 7370 ± 522 nM | 1890 ± 72 nM | 
